The values below come from patent US12606802B2, “Methods and compositions for improving the assembly of adeno-associated viruses (AAVs)” (priority 2019, dated 2026).

Entries after “also recorded” stand apart in the source; their conditions may differ.

In one series the test system is AAV2 and AAV8 vector. Kind of series: Vector production in HEK293 cells with chemical inhibitors, DRP by qPCR, serotype not separated. Type of series: cell-based, adeno-associated virus. The protocol: (§1) Inhibitor-containing media was added to wells and transfection mixtures containing either AAV2 (light bars) or AAV8 (dark bars) production plasmids were added dropwise on top, and vector harvested 48 h later (FIG. 8A). […] To examine whether any of these were not directly inhibiting capsid assembly but rather a result of poor transfection efficiency, an upstream but important factor for vector production, the experiment was repeated adding inhibitors 4 h after transfection mixture was added to allow transfection steps to initiate (FIG. 8B).
In general terms: Real-time PCR tracks product formation cycle by cycle.

The subject of series [1] is HEK293 cells. Description: General transfection efficiency by imaging EGFP positive cells. Type of series: cell-based. The conditions noted are these: for transfection efficiency / EGFP expression: inhibitor 4 h post transfection.
The test system of a further series is AAV. The conditions noted are these: cited from earlier work.
The subject of series [2] is PEI-mediated transfection of plasmid DNA. To be noted: cited from earlier work.
For the next series, the system named is VP proteins. The conditions noted are these: cited from earlier work.
The subject of a further series is AAV8. Description: AAV8 vector production in HEK293 cells with chemical inhibitors, DRP by qPCR. Type of series: cell-based, adeno-associated virus. The protocol: as §1
In the next series the test system is AAV2. Description: AAV2 vector production in HEK293 cells with chemical inhibitors, DRP by qPCR. Type of series: cell-based, adeno-associated virus. The protocol: as §1
The subject of series [3] is HEK293 cells. Description: Cell viability by ATP levels (Cell Titer Glo). Type of series: cell-based. To be noted: 48 h. On the technique in general: In ATP-based viability assays light output follows the ATP content of the culture.
The test system of series [4] is HEK293 cells. To be noted: 270 uM; 48 h.
Procedure: General transfection efficiency was assessed visually by imaging EGFP positive cells (EGFP is present in the ITR-flanked transgene plasmid), and cell health was assessed visually by brightfield imaging and quantitatively by ATP levels in drug treated wells (light shading, FIG. 8B).
In these experiments, production plasmids were transfected into HEK293 cells and the appropriate inhibitor was serial diluted and added 4 h later at the concentrations indicated along the x-axis. The inhibitor was added at the same concentrations to a parallel plate and ATP levels were quantified by Cell Titer Glo® to assess cell viability after 48 h of incubation. General transfection efficiency (EGFP; present on ITR-flanked transgene plasmid) and cell morphology (Brightfield), at concentrations listed along the x-axis, were assessed by microscopy at 48 h, immediately before vector harvest from the same well.
Setting [5] is: inhibitor added immediately before transfection, harvest 48 h.
The mark [6] stands for this setting: higher concentrations, particularly 90-270 uM, 4 h post transfection.
The mark [7] stands for this setting: inhibitor added 4 h after transfection, harvest 48 h.
Setting [8] is: 6.25 μM, inhibitor added 4 h after transfection.

As to `CO/C1=C\C(C)=C\[C@@H](C)[C@@H](O)[C@@H](C)C/C(C)=C/C=C/[C@H](OC)[C@@H]([C@@H](C)[C@@H](O)[C@H](C)[C@@]2(O)C[C@@H](O)[C@H](C)[C@@H](C(C)C)O2)OC1=O` [Bafilomycin A1], the “reduction in vector titer” value in the series on AAV2 and AAV8 vector (added 4 h post transfection at low doses) is listed as 10 fold. In addition, in the series with AAV2 and AAV8 vector (inhibitor added immediately before transfection, all doses, harvest 48 h), the vector production entry is recorded as “abolished vector production to background levels”. For the same molecule, the vector titer result in the series on AAV2 and AAV8 vector (setting [5]) is recorded as “abolished vector production”. Moreover, the transfection efficiency result with HEK293 cells [1] (low doses, added 4 h post transfection) is listed as “no visibly appreciable effect”. For the same molecule, the AAV infection entry in the series on AAV is on record as “blocks AAV infection”. For the same molecule, the “PEI-mediated transfection of plasmid DNA” value in series [2] is given as “blocks PEI-mediated transfection of plasmid DNA”. For the same molecule, the “VP protein in the absence of AAP” value with VP proteins is on record as “rescue VP protein; also recorded: rescues degradation of some serotype's VP proteins”.

For `NS(=O)(=O)c1ccc(N/N=C2\C(=O)Nc3ccc(Br)cc32)cc1` [Cdk2 inhibitor II], the AAV8 production result with AAV8 (setting [6]) was “dose-dependent effect”. Further, the “decrease in AAV8 titer” value in the series on AAV8 (higher concentrations, 4 h post transfection) is listed as roughly 10 fold. The AAV2 production result with AAV2 (setting [6]) is on record as “dose-dependent effect”. Further, in the series with HEK293 cells [3] (90-270 uM), the “cell viability (as assayed by ATP)” value was “without affecting cell viability”. In addition, the “gross transfection efficiency (by EGFP visualization)” value with HEK293 cells [1] (90-270 uM, 48 h) is “without affecting”. For the same molecule, the cell morphology entry with HEK293 cells [4] is recorded as “affected”.

As to apoptazole, in the series on AAV2 and AAV8 vector (setting [7]), the vector titer result is on record as “strong dose dependent decrease”. The “vector production (GC per living cell as percentage of DMSO control)” value in the series with AAV8 (AAV8, lowest level reached, inhibitor 4 h post transfection) is recorded as 5%. Further, in the series on HEK293 cells [3] (300 uM), the “cell death as assayed by ATP abundance” value was “did not show appreciable cell death”. Besides, in the series on HEK293 cells [1] (300 uM, 48 h), the “expression of EGFP” value was “robust expression of EGFP”. In the series on HEK293 cells [1] (48 h), the “transfection efficiency / EGFP expression” value is recorded as “no apparent loss”.

With `NS(=O)(=O)OC[C@H]1C[C@@H](Nc2ncncc2C(=O)c2ccn(Cc3cccc(Br)c3)n2)C[C@@H]1O` [ML-792], in the series on HEK293 cells [1] (48 h), the “transfection efficiency / EGFP expression” value was “dramatic loss”.

In the case of `Cc1ccc2nc(CN(CCN(Cc3nc4ccc(C)cc4[nH]3)Cc3nc4ccc(C)cc4[nH]3)Cc3nc4ccc(C)cc4[nH]3)[nH]c2c1` [NSC348884], the vector titer entry is listed as “not seen” in the series with AAV2 and AAV8 vector (setting [7]); “large effect” in the series on AAV2 and AAV8 vector (setting [5]).

`O=C1NC(=NCc2cccs2)S/C1=C\c1ccc2ncccc2c1` [Cdk1 inhibitor IV]: the vector titer entry with AAV2 and AAV8 vector (setting [7]) was “did not affect vector titer without concomitant decreases in both cell health and transfection efficiency”. Also, the AAV8 titer entry in the series on AAV8 (setting [8]) is “appreciable decrease”. For the same molecule, the AAV2 production result in the series with AAV2 (setting [8]) is “no effect”. For the same molecule, in the series on HEK293 cells [3] (6.25 μM, added 4 h after transfection), the cell viability entry was “without affecting cell viability”.

Turning to `O=[N+]([O-])c1ccc(F)c([N+](=O)[O-])c1` [FDNB], the “per cell vector production (GC per living cell)” value with AAV2 and AAV8 vector (4 h post transfection, likely artefact of ATP-based viable cell count) is listed as “increase”.
